Measurements taken from patent US20130096067A1, “DROSOPHILA TUMOR STEM CELL MODEL AND USES THEREOF” (priority 2011, published 2013).

System: Raf-1^gof intestinal tumors
Settings: assessed three days later; for Log2 (fold) of luciferase activity relative to DMSO controls / Fold (luciferase activity relative to DMSO controls): ICCB compounds fed in vials to flies with one-day old Raf-1^gof tumors; for Fold (luciferase activity relative to DMSO controls) / Fold (luciferase activity, fold difference relative to DMSO controls): averaged from multiple wells; for Log2 (fold) (luciferase activity, log2 of the fold difference relative to DMSO controls) / Fold (luciferase activity, fold difference relative to DMSO controls): screen of 480 ICCB compounds in vials, compounds fed to flies with one-day old Raf-1^gof tumors, esg-Gal4 luciferase
Further: test concentration or dose not given here.

| Compound | Log2 (fold) of luciferase activity relative to DMSO controls | Fold (luciferase activity relative to DMSO controls) | Log2 (fold) (luciferase activity, log2 of the fold difference relative to DMSO controls) | Fold (luciferase activity, fold difference relative to DMSO controls) |
| --- | --- | --- | --- | --- |
| CC1(C2CCCC2)Cc2cc(OCC(=O)O)c(Cl)c(Cl)c2C1=O (stereo not shown) [IAA-94] | 0.061 | 1.043 fold | – | – |
| CCCCC[C@H](O)/C=C/[C@H]1[C@H](O)CC(=O)[C@@H]1C/C=C\CCCC(=O)O [PROSTAGLANDIN E2] | – | – | −0.223 | 0.857 |
| CCCCCC[C@@H]([C@@H](C)O)n1cnc2c(N)ncnc21.Cl [EHNA HCl] | – | – | −0.312 | 0.805 |
| CCCCC/C=C\C/C=C\C/C=C\C=C\[C@@H](O)CCCC(=O)O [5(S)-HETE] | – | – | −0.343 | 0.788 |
| CCCCC(C)(O)C/C=C/[C@H]1[C@H](O)CC(=O)[C@@H]1CCCCCCC(=O)O (mixture of isomers) [MISOPROSTOL, FREE ACID] | −0.137 | 0.909 fold | – | – |
| CCCCCCCCCCCCC(O)C(=O)O (stereo not shown) [2-HYDROXYMYRISTIC ACID] | 0.087 | 1.062 fold | – | – |
| O=c1[nH]c2cc(C(F)(F)F)ccc2n1-c1cc(C(F)(F)F)ccc1O [NS-1619] | – | – | −0.495 | 0.709 |
| Oc1c2ccccc2c2c3c(cccc13)N=N2 [SP-600125] | −0.100 | 0.933 fold | – | – |
| O=C(O)CCC/C=C\C[C@@H]1[C@@H](/C=C/[C@@H](O)COc2cccc(C(F)(F)F)c2)[C@H](O)C[C@@H]1O (racemic) [FLUPROSTENOL] | 0.058 | 1.041 fold | – | – |
| CC(=O)[C@H]1[C@H](C#N)C[C@H]2[C@@H]3CC=C4C[C@@H](O)CC[C@]4(C)[C@H]3CC[C@@]21C [Pregnenolone 16alpha carbonitrile] | – | – | −0.492 | 0.711 |
| O[C@H]1[C@H](O)[C@@H](O)CN2CC[C@H](O)[C@H]12 [castanospermine] | – | – | −0.351 | 0.784 |
| COc1ccc(Cl)cc1C(=O)NCCc1ccc(S(=O)(=O)NC(=O)NC2CCCCC2)cc1 [GLYBURIDE] | – | – | −0.217 | 0.861 |
| O=C1CSC(c2ccccc2Cl)c2cc(Cl)ccc2N1 (stereo not shown) [CGP-37157] | −0.195 | 0.873 fold | – | – |
| Cc1ccc(N(CC2=NCCN2)c2cccc(O)c2)cc1 [PHENTOLAMINE] | – | – | −0.321 | 0.800 |
| C=C[C@H]1C[N@@]2CC[C@H]1C[C@H]2[C@H](O)c1ccnc2ccc(OC)cc12 [QUININE] | −0.201 | 0.870 fold | – | – |
| CCCCC/C=C\C/C=C\CCCCCCCC(=O)NCCO [ANANDAMIDE (18:2, n-6)] | −0.101 | 0.932 fold | – | – |
| METHOXY VERAPAMIL | −0.069 | 0.954 fold | – | – |
| MDL-28170 | – | – | −0.617 | 0.652 |
| CC(C)C[C@@H](/C=C/S(C)(=O)=O)NC(=O)[C@H](CC(C)C)NC(=O)[C@H](CC(C)C)NC(=O)OCc1ccccc1 [ZL3VS] | – | – | −0.513 | 0.701 |
| COc1cccc(-c2cc(=O)c3ccccc3o2)c1N [PD 98059] | – | – | −0.338 | 0.791 |
| CC[N+](CC)(CC)CC(=O)Nc1c(C)cccc1C [QX-314] | 0.146 | 1.107 fold | – | – |
| CCCCC/C=C\C[C@@H](O)/C=C/C=C/C=C\[C@@H](O)CCCC(=O)O [LEUKOTRIENE B4] | −0.037 | 0.975 fold | – | – |
| CCCCC/C=C\C=C\[C@@H](O)CCCCCCCC(=O)O [9(S)-HODE] | – | – | −0.398 | 0.759 |
